Data on 24 compounds can be found in patent publication US20050059726A1, “Pyrrolidine-2-ones as factor xa inhibitors” (priority 2001, published 2005).

Where a name gives a salt, the structure may show the parent alone. Bounds are passed on as bounds.

By Ki is commonly meant a dissociation constant, usually derived from enzyme kinetics or from competition with a known ligand.

Test [1] has as its target T1, human Factor Xa (Homo sapiens, UniProt P00742). Briefly: In vitro assay for inhibition of Factor Xa (1), chromogenic assay. It is filed as biochemical. The settings on record: substrate N-α-benzyloxycarbonyl-D-Arg-Gly-Arg-p-nitroanilide 200 μM, Ki calculated from IC50. Here is the method: • 1. Klimkowski, Valentine Joseph; Kyle, Jeffrey Alan; Masters, John Joseph; Wiley, Michael Robert. PCT Int. Appl. (2000), WO 0039092. In Vitro Assay for Inhibition of Factor Xa (1)
Compounds were diluted from a 10 mM stock solution in dimethylsulfoxide at appropriate concentrations. Assay was performed at room temperature using buffer consisting of: 50 mM Tris-HCl, 150 mM NaCl, 5 mM CaCl2, pH 7.4. containing human Factor Xa (final conc. of 0.0015 U,ml^−1). Compound and enzyme were preincubated for 15 min prior to addition of the substrate (final conc. of 200 μM). The reaction was stopped after 30 min with the addition of soybean trypsin inhibitor or H-D-PHE-PRO-ARG-Chloromethylketone. BioTek EL340 or Tecan Spectrafluoro Plus plate readers were used to monitor the absorbance at 405 nm. To obtain IC50 values the data were analysed using ActivityBase® and XLfit®.
Calculation of Ki values:
Ki=IC50/(1+[Substrate]/Km)
The Ki value for the above assay can be obtained by dividing the IC50 value by 1.6.

Test [2] has as its target T1, human Factor Xa. As to the kind of experiment: In vitro assay for inhibition of Factor Xa (2), fluorogenic assay. Format: biochemical. The conditions noted are these: substrate Rhodamine 110, bis-(CBZ-glycylglycyl-L-arginine amide 10 μM), Ki calculated from IC50. In a few lines:
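Enzyme (final 0.0003 U/mL) preincubated 15 min with compound at room temperature in 50 mM Tris-HCl, 150 mM NaCl, 5 mM CaCl2, pH 7.4, then rhodamine 110 bis-(CBZ-Gly-Gly-Arg amide) substrate added (final 10 μM).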

T1 sequence (P00742 235-488 limits assumed): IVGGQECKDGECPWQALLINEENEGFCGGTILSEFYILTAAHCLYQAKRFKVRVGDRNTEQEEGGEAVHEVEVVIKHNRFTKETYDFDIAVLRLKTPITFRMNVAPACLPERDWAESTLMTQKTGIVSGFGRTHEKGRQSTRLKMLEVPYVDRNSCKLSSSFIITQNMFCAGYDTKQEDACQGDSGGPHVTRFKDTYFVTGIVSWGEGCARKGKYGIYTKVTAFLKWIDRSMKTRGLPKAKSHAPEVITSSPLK
T1 sequence (P00742 41-179 partner limits assumed): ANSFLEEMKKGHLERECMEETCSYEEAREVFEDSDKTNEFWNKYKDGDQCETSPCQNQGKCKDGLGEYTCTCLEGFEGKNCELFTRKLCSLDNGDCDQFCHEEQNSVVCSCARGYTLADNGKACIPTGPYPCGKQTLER

On to `CN(C)c1ccc(N2CC[C@H](NS(=O)(=O)c3ccc4cc(Cl)ccc4c3)C2=O)cc1` [Example 2, 6-Chloro-N-{(3S)-1-[4-(dimethylamino)phenyl]-2-oxopyrrolidin-3-yl}naphthalene-2-sulfonamide], for which the Ki in test [1] was below 0.02 µM.
Same read-out and setting: under `CNS(=O)(=O)c1ccccc1-c1ccc(N2CC[C@H](NS(=O)(=O)/C=C/c3ccc(Cl)s3)C2=O)c(F)c1` [Example 19, 4′-[(3S)-3-({[(E)-2-(5-Chlorothien-2-yl)ethenyl]sulfonyl}amino)-2-oxopyrrolidin-1-yl]-3′-fluoro-N-methyl-1,1′-biphenyl-2-sulfonamide] stands below 0.01 µM; under `CS(=O)(=O)Nc1ccccc1-c1ccc(N2CC[C@H](NS(=O)(=O)/C=C/c3ccc(Cl)s3)C2=O)nc1` [Example 21, (E)-2-(5-Chlorothien-2-yl)-N-[(3S)-1-(5-{2-[(methylsulfonyl)amino]phenyl}pyridin-2-yl)-2-oxopyrrolidin-3-yl]ethenesulfonamide], below 0.02 µM.
On the same count and under the same terms, under `CS(=O)(=O)c1ccccc1-c1ccc(N2CC[C@H](NS(=O)(=O)c3cc4cc(Cl)ccc4o3)C2=O)nc1` [Example 23, 5-Chloro-N-((3S)-1-{5-[2-(methylsulfonyl)phenyl]pyridin-2-yl}-2-oxopyrrolidin-3-yl)-1-benzofuran-2-sulfonamide] stands below 1 µM; under `Cc1ccc(-c2ccc(N3CC[C@H](NS(=O)(=O)c4ccc5cc(Cl)ccc5c4)C3=O)c(F)c2)o1` [Example 73, 6-Chloro-N-{(3S)-1-[2-fluoro-4-(5-methyl-2-furyl)phenyl]-2-oxopyrrolidin-3-yl}naphthalene-2-sulfonamide], below 1 µM; under `O=C1[C@@H](NS(=O)(=O)c2ccc3cc(Cl)ccc3c2)CCN1c1ccc(-c2ccncc2Cl)cc1F` [Example 83, 6-chloro-N-{(3S)-1-[4-(3-Chloropyridin-4-yl)-2-fluorophenyl]-2-oxopyrrolidin-3-yl}naphthalene-2-sulfonamide], below 0.01 µM.
Same read-out and setting: to `Cn1cncc1-c1ccc(N2CC[C@H](NS(=O)(=O)c3ccc4cc(Cl)ccc4c3)C2=O)c(F)c1` [Example 85, 6-Chloro-N-{(3S)-1-[2-fluoro-4-(1-methyl-1H-imidazol-5-yl)phenyl]-2-oxopyrrolidin-3-yl}naphthalene-2-sulfonamide] belongs below 0.01 µM.
In the case of `O=C1[C@@H](NS(=O)(=O)c2ccc3cc(Cl)ccc3c2)CCN1c1ccc(I)cc1F` [Example 89, 6-Chloro-N-[(3S)-1-(2-fluoro-4-iodophenyl)-2-oxopyrrolidin-3-yl]naphthalene-2-sulfonamide], the Ki in test [1] was below 0.2 µM.
For the compound `O=C1[C@@H](NS(=O)(=O)/C=C/c2ccc(Cl)s2)CCN1c1ccc(I)cn1` [Example 90, (E)-2-(5-Chlorothien-2-yl)-N-[(3S)-1-(5-iodopyridin-2yl)oxopyrrolidin-3-yl]ethenesulfonamide], the inhibition constant (Ki) in test [1] is below 1 µM.
On to `O=C1[C@@H](NS(=O)(=O)c2ccc3cc(Cl)ccc3c2)CCN1c1ccc(-n2ccnc2)cc1F` [Example 122, 6-Chloro-N-{(3S)-1-[2-fluoro-4-(1H-imidazol-1-yl)phenyl]-2-oxopyrrolidin-3-yl}naphthalene-2-sulfonamide], for which the Ki in test [2] was below 0.01 µM.
Consider `CC(C)(C)c1ccc(N2CC[C@H](NS(=O)(=O)c3ccc4cc(Cl)ccc4c3)C2=O)cc1` [Example 125, N-[(3S)-1-(4-tert-butylphenyl)-2-oxopyrrolidinyl]-6-chloro-2-naphthalenesulfonamide], for which the Ki in test [1] is below 0.2 µM.
On to `Cc1cn(-c2ccc(N3CC[C@H](NS(=O)(=O)c4ccc5cc(Cl)ccc5c4)C3=O)c(F)c2)cn1` [Example 128, 6-Chloro-N-{(3S)-1-[2-fluoro-4-(4-methyl-1H-imidazol-1-yl)phenyl]-2-oxopyrrolidinyl}-2-naphthalenesulfonamide], for which the Ki in test [2] is below 0.01 µM.
As to `O=C1[C@@H](NS(=O)(=O)c2ccc3cc(Cl)ccc3c2)CCN1c1ccc(-n2cccn2)cc1F` [Example 129, 6-Chloro-N-{(3S)-1-[2-fluoro-4-(1H-pyrazol-1-yl)phenyl]-2-oxopyrrolidinyl}-2-naphthalenesulfonamide], the Ki in test [2] is below 0.01 µM.
Same read-out and setting: under `O=C1[C@@H](NS(=O)(=O)CCc2ccc(Cl)s2)CCN1c1ccc(I)cn1` [Example 132, 2-(5-Chlorothien-2-yl)-N-[(3S)-1-(5-iodopyridin-2-yl)-2-oxopyrrolidin-3-yl]ethane-1-sulfonamide] stands below 0.02 µM.
For `NC(=O)CN([C@H]1CCN(c2ccc(C(N)=O)cc2F)C1=O)S(=O)(=O)/C=C/c1ccc(Cl)s1` [Example 133, 4-[(3S)-3-((2-Amino-2-oxoethyl){[(E)-2-(5-chlorothien-2-yl)ethenyl]sulfonyl}amino)-2-oxopyrrolidin-1yl]-3-fluorobenzamide], in test [2], the Ki was below 0.01 µM.
On the same count and under the same terms, under `CN(C)C(=O)c1ccc(N2CC[C@H](N(CC(N)=O)S(=O)(=O)/C=C/c3ccc(Cl)s3)C2=O)c(F)c1` [Example 134, 4-[(3S)-3-((2-Amino-2-oxoethyl){[(E)-2-(5-chlorothien-2-yl)ethenyl]sulfonyl}amino)-2-oxopyrrolidin-1-yl]-3-fluoro-N,N-dimethylbenzamide] stands below 0.01 µM; under `CC(O)c1ccc(N2CC[C@H](NS(=O)(=O)/C=C/c3ccc(Cl)s3)C2=O)c(F)c1` (stereo partly drawn) [Example 135, (E)-2-(5-Chlorothien-2-yl)-N-{(3S)-1-[2-fluoro-4-(1-hydroxyethyl)phenyl]-2-oxopyrrolidin-3-yl}ethenesulfonamide], below 0.2 µM; under `C/C(=C\S(=O)(=O)N[C@H]1CCN(c2ccc(I)cn2)C1=O)c1ccc(Cl)s1` [Example 136], below 0.01 µM.
Same read-out and setting: to `C/C(=C\S(=O)(=O)N[C@H]1CCN(c2ccc(NS(C)(=O)=O)cc2F)C1=O)c1ccc(Cl)s1` [Example 137, (1E)-2-(5-Chlorothien-2-yl)-N-((3S)-1-{2-fluoro-4-[(methylsulfonyl)amino]phenyl}-2-oxopyrrolidin-3-yl)prop-1-ene-1-sulfonamide] belongs below 0.02 µM; to `CC(=O)c1ccc(N2CC[C@H](NS(=O)(=O)/C=C/c3ccc(Cl)s3)C2=O)cc1` [Example 138, (E)-N-[(3S)-1-(4-Acetylphenyl)-2-oxopyrrolidin-3-yl]-2-(5-chlorothien-2-yl)ethenesulfonamide], below 0.2 µM.
Same read-out and setting: to `NC(=O)CN([C@H]1CCN(c2ccc(-c3ccccc3S(N)(=O)=O)cc2F)C1=O)S(=O)(=O)c1cc2ccc(Cl)cc2s1` [Example 140, 2-{(6-Chloro-benzo[b]thiophene-2-sulphonyl)-[(S)-1-(3-fluoro-2′-sulfamoyl-biphenyl-4-yl)-2-oxo-pyrrolidin-3-yl]-amino}-acetamide Formate] belongs below 0.01 µM.
With `C/C(=C\S(=O)(=O)N[C@H]1CCN(c2ccc(-n3ccnc3C[N+](C)(C)CC(N)=O)cc2F)C1=O)c1ccc(Cl)s1` [Example 142, 2-Amino-N-[(1-{4-[(3S)-3-({[(1E)-2-(5-chlorothien-2-yl)prop-1-enyl]sulfonyl}amino)-2-oxopyrrolidin-1-yl]-3-fluorophenyl}-1H-imidazol-2-yl)methyl]-N,N-dimethyl-2-oxoethanaminium formate], the Ki in test [2] was below 0.01 µM.
With `C[N+](C)(CC(N)=O)Cc1nccn1-c1ccc(N2CC[C@H](NS(=O)(=O)CCc3ccc(Cl)s3)C2=O)c(F)c1` [Example 143, 2-Amino-N-[(1-{4-[(3S)-3-({[2-(5-chlorothien-2-yl)ethyl]sulfonyl}amino)-2-oxopyrrolidin-1-yl]-3-fluorophenyl}-1H-imidazol-2-yl)methyl]-N,N-dimethyl-2-oxoethanaminium Formate], the Ki in test [2] was below 0.01 µM.
On to `C[N+](C)(CC(N)=O)Cc1nccn1-c1ccc(N2CC[C@H](NS(=O)(=O)c3cc4ccc(Cl)cc4s3)C2=O)c(F)c1` [Example 144, 2-Amino-N-({1-[4-((3S)-3-{[(6-chloro-1-benzothien-2-yl)sulfonyl]amino}-2-oxopyrrolidin-1-yl)-3-fluorophenyl]-1 H-imidazol-2-yl}methyl)-N,N-dimethyl-2-oxoethanaminium Formate], for which, in test [2], the Ki was below 0.01 µM.
